≈ marks a conversion by molar mass, not a printed value. Calls of active or inactive are those of the source. The calls are words filed in the database; no cut-off is given here.
Assays:
[1] = system: Aspergillus fumigatus; test: Antifungal activity against Aspergillus fumigatus ATCC 204305 after 48 hrs by CLSI M38-A broth dilution method; assay type: functional; conditions: ATCC 204305, 48 h
[2] = system: Human alphaherpesvirus 1; test: Antiviral activity against HSV1 infected in human HeLa cells assessed as maximum dose required for highest viral reduction factor preincubated for 0.5 hrs before infection measured after 36 hrs by end point titration technique; assay type: functional
[3] = system: Pichia kudriavzevii; test: Antifungal activity against Candida krusei ATCC 6258 upto 100 ug/mL after 24 hrs by AFST-EUCAST method; assay type: functional, organism-based
[4] = system: HeLa; test: Cytotoxicity against human HeLa cells after 48 hrs by MTT assay; assay type: functional
[5] = system: Candida parapsilosis; test: Antifungal activity against Candida parapsilosis ATCC 22019 upto 100 ug/mL after 24 hrs by AFST-EUCAST method; assay type: functional, organism-based
[6] = Selectivity index, ratio of CC50 for african green monkey Vero cells to CC50 for human HeLa cells; assay type: functional
[7] = system: Human alphaherpesvirus 1; test: Antiviral activity against HSV1 infected in human HeLa cells assessed as viral reduction factor preincubated for 0.5 hrs before infection measured after 36 hrs by end point titration technique relative to control; assay type: functional
[8] = system: Candida tropicalis; test: Antifungal activity against Candida tropicalis CECT 11901 upto 100 ug/mL after 24 hrs by AFST-EUCAST method; assay type: functional, organism-based
[9] = system: Candida albicans; test: Antifungal activity against Candida albicans ATCC 10231 upto 100 ug/mL after 24 hrs by AFST-EUCAST method; assay type: functional, organism-based
[10] = system: Aspergillus flavus; test: Antifungal activity against Aspergillus flavus ATCC 204304 upto 100 ug/mL after 48 hrs by CLSI M38-A broth dilution method; assay type: functional, organism-based
[11] = system: HeLa; test: Cytotoxicity against human HeLa cells; assay type: cell-based
[12] = system: Aspergillus niger; test: Antifungal activity against Aspergillus niger ATCC 10124 upto 100 ug/mL after 48 hrs by CLSI M38-A broth dilution method; assay type: functional, organism-based
[13] = system: Aspergillus terreus; test: Antifungal activity against Aspergillus terreus CDC 317 upto 100 ug/mL after 48 hrs by CLSI M38-A broth dilution method; assay type: functional, organism-based
[14] = Cytotoxicity against african green monkey Vero cells after 48 hrs by MTT assay; assay type: cell-based; conditions: chlorocebus sabaeus
[15] = system: Aspergillus fumigatus; test: Antifungal activity against Aspergillus fumigatus ATCC 204305 upto 100 ug/mL after 48 hrs by CLSI M38-A broth dilution method; assay type: functional, organism-based

Compound	MIC [1] [mg/L]	MIC [3]	MIC [5]	MIC [8]	MIC [9]	MIC [10]	MIC [12]	MIC [13]	MIC [15]	Activity [2] [µg/mL]	CC50 [4] [mg/L]	Selectivity Index [6]	Activity [7]	CC100 [11] [µg/mL]	CC50 at 48 h [14] [mg/L]
COC(=O)[C@]1(C)CCC[C@@]2(C)[C@H]1CC=C1C=C(C(C)C)CC[C@@H]12 [METHYL ABIETATE]	–	inactive	inactive	inactive	inactive	inactive	inactive	inactive	inactive	6.25	3.6 (≈ 11.4 µM)	13.7	10	50	49.4 (≈ 156 µM)
Nc1nc2c(ncn2COCCO)c(=O)[nH]1 [ACYCLOVIR]	–	–	–	–	–	–	–	–	–	6	–	–	10	> 600	–
CC(C)C1=CC2=CC[C@H]3[C@](C)(CO)CCC[C@]3(C)[C@H]2CC1	–	inactive	inactive	inactive	inactive	inactive	inactive	inactive	inactive	6.25	5.2 (≈ 18 µM)	2.4	10	25	12.7 (≈ 44 µM)
CC[C@]1(O)C[C@H]2CN(CCc3c([nH]c4ccccc34)[C@@](C(=O)OC)(c3cc4c(cc3OC)N(C=O)[C@H]3[C@@](O)(C(=O)OC)[C@H](OC(C)=O)[C@]5(CC)C=CCN6CC[C@]43[C@@H]65)C2)C1 [VINCRISTINE]	–	–	–	–	–	–	–	–	–	–	0.05 (≈ 0.0606 µM)	22	–	–	1.1 (≈ 1.33 µM)
CC(C)=C1CCC2=C(CC[C@H]3[C@](C)(CO)CCC[C@]23C)C1	–	inactive	inactive	inactive	inactive	inactive	inactive	inactive	inactive	–	19.7 (≈ 68.3 µM)	1	inactive	100	20.2 (≈ 70 µM)

Continued, in another order:

MIC [1] [mg/L]	MIC [3]	MIC [5]	MIC [8]	MIC [9]	MIC [10]	MIC [12]	MIC [13]	MIC [15]	Compound	Activity [2] [µg/mL]	CC50 [4] [mg/L]	Selectivity Index [6]	Activity [7]	CC100 [11] [µg/mL]	CC50 at 48 h [14] [mg/L]
50 (≈ 175 µM)	inactive	inactive	inactive	inactive	inactive	inactive	inactive	–	CC(C)C1=CC2=CC[C@@H]3[C@](C)(CCC[C@@]3(C)C=O)[C@H]2CC1	12.5	5.6 (≈ 19.5 µM)	5.6	10	> 50	31.5 (≈ 110 µM)
–	inactive	inactive	inactive	inactive	inactive	inactive	inactive	inactive	CC(C)=C1CCC2=C(CC[C@H]3[C@](C)(C=O)CCC[C@]23C)C1	–	33.4 (≈ 117 µM)	1.6	inactive	> 100	55.3 (≈ 193 µM)
–	inactive	inactive	inactive	inactive	inactive	inactive	inactive	inactive	CC(C)=C1CCC2=C(CC[C@H]3[C@](C)(C(=O)O)CCC[C@]23C)C1	100	53.1 (≈ 176 µM)	0.8	10	> 100	43.9 (≈ 145 µM)
–	inactive	inactive	inactive	inactive	inactive	inactive	inactive	inactive	COC(=O)[C@]1(C)CCC[C@]2(C)C3=C(CC[C@@H]12)CC(=C(C)C)CC3	–	46.6 (≈ 147 µM)	0.4	inactive	100	19.2 (≈ 60.7 µM)
–	inactive	inactive	inactive	inactive	inactive	inactive	inactive	inactive	CC(C)C1=CC2=CC[C@@H]3[C@](C)(CCC[C@@]3(C)C(=O)O)[C@H]2CC1 [ABIETIC ACID]	–	14.9 (≈ 49.3 µM)	3.5	inactive	> 100	52.5 (≈ 174 µM)
